Among the data in paper doi:10.1101/2024.08.13.607785v1 (biorxiv, 2024) are remaining activity values, retold here.

Molecules are shown by their SMILES. Read-outs that look alike come from different tables or passages of the source.

Test in all cases: biochemical
Holding throughout (design): species or system mixed lysate of K562, MV4-11, THP-1, NCI-H1155

Test [1] deals with Cyclin-dependent kinase 13 ; CDK13 ; Q14004 (Homo sapiens, UniProt Q14004).
In test [2] the target is Cyclin-dependent kinase 1 ; CDK1 ; P06493 (Homo sapiens, UniProt P06493).
Sequence of Cyclin-dependent kinase 1 ; CDK1 ; P06493 (P06493 whole entry, one chain of several): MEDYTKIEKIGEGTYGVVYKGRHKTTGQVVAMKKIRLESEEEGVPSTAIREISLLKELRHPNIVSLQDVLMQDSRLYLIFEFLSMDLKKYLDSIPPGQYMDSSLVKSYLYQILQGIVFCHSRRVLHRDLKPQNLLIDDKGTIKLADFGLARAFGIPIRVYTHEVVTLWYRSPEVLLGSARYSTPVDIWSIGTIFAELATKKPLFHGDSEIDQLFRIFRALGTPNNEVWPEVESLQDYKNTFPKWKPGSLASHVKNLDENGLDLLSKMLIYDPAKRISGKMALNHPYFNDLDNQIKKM
Test [3] has as its target Calcium/calmodulin-dependent protein kinase kinase 2 ; CAMKK2 ; Q96RR4 (Homo sapiens, UniProt Q96RR4).
The target of test [4] is Cyclin-dependent kinase 7 ; CDK7 ; P50613 (Homo sapiens, UniProt P50613).
Sequence of Cyclin-dependent kinase 7 ; CDK7 ; P50613 (P50613 whole entry, one chain of several): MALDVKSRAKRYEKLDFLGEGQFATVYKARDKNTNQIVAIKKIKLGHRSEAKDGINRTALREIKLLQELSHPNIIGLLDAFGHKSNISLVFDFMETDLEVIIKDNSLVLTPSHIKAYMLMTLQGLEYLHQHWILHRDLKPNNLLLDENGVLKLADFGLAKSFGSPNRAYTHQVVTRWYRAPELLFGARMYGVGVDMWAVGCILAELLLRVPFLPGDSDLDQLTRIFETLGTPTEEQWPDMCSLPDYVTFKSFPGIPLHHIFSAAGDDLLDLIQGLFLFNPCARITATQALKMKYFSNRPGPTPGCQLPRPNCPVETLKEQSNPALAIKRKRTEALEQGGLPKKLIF
The target of test [5] is T1, Cyclin-dependent kinase-like 5 ; CDKL5 ; O76039 (Homo sapiens, UniProt O76039).
T1 sequence (O76039 1-960): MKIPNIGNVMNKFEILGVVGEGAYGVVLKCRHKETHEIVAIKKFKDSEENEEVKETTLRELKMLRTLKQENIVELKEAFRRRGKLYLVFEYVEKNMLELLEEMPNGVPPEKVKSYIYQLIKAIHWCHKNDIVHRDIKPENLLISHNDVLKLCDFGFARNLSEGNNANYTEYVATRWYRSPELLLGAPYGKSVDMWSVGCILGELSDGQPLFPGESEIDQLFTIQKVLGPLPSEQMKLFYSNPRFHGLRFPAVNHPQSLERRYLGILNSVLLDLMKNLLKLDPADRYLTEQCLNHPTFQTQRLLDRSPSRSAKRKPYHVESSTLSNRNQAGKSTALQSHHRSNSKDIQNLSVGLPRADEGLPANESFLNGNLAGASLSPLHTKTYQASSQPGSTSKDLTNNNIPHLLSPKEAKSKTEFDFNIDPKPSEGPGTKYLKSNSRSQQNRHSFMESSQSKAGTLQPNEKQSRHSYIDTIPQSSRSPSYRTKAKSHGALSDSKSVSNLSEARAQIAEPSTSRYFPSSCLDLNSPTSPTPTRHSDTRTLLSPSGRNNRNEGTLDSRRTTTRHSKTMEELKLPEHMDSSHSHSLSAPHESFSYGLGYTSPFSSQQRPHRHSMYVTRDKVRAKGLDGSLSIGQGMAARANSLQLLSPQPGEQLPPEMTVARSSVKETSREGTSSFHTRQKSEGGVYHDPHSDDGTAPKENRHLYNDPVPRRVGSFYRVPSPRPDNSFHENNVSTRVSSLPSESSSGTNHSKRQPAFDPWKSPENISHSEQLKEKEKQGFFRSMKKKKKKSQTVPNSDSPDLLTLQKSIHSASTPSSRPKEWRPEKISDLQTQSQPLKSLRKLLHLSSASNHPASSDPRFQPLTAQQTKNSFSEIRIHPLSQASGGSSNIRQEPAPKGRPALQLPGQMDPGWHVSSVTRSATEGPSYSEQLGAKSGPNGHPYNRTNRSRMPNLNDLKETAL

Test [6] deals with T2, Interleukin-1 receptor-associated kinase 3 ; IRAK3 ; Q9Y616 (Homo sapiens, UniProt Q9Y616).
T2 sequence (Q9Y616 1-596): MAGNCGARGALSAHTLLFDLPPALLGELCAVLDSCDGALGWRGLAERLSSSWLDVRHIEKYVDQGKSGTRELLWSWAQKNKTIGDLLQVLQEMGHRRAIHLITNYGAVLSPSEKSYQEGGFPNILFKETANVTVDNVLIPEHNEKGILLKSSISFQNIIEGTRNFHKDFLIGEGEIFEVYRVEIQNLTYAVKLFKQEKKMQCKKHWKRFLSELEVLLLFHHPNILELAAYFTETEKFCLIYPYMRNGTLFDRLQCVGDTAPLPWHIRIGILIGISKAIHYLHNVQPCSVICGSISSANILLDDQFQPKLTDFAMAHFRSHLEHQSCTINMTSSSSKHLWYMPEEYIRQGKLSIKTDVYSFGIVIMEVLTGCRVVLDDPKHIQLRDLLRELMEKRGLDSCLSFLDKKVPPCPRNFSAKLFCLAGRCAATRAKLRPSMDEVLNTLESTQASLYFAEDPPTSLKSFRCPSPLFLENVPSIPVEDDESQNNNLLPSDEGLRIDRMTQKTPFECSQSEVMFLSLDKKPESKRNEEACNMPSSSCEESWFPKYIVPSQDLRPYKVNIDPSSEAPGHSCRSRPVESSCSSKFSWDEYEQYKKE

Setting [7] is: read-out: BAY-1143572 (10 µM) / %Intensity relative to DMSO.
The mark [8] stands for this setting: read-out: BAY-1251152 (10 µM) / %Intensity relative to DMSO.

Sequence of Cyclin-dependent kinase 13 ; CDK13 ; Q14004 (Q14004 whole entry, one chain of several): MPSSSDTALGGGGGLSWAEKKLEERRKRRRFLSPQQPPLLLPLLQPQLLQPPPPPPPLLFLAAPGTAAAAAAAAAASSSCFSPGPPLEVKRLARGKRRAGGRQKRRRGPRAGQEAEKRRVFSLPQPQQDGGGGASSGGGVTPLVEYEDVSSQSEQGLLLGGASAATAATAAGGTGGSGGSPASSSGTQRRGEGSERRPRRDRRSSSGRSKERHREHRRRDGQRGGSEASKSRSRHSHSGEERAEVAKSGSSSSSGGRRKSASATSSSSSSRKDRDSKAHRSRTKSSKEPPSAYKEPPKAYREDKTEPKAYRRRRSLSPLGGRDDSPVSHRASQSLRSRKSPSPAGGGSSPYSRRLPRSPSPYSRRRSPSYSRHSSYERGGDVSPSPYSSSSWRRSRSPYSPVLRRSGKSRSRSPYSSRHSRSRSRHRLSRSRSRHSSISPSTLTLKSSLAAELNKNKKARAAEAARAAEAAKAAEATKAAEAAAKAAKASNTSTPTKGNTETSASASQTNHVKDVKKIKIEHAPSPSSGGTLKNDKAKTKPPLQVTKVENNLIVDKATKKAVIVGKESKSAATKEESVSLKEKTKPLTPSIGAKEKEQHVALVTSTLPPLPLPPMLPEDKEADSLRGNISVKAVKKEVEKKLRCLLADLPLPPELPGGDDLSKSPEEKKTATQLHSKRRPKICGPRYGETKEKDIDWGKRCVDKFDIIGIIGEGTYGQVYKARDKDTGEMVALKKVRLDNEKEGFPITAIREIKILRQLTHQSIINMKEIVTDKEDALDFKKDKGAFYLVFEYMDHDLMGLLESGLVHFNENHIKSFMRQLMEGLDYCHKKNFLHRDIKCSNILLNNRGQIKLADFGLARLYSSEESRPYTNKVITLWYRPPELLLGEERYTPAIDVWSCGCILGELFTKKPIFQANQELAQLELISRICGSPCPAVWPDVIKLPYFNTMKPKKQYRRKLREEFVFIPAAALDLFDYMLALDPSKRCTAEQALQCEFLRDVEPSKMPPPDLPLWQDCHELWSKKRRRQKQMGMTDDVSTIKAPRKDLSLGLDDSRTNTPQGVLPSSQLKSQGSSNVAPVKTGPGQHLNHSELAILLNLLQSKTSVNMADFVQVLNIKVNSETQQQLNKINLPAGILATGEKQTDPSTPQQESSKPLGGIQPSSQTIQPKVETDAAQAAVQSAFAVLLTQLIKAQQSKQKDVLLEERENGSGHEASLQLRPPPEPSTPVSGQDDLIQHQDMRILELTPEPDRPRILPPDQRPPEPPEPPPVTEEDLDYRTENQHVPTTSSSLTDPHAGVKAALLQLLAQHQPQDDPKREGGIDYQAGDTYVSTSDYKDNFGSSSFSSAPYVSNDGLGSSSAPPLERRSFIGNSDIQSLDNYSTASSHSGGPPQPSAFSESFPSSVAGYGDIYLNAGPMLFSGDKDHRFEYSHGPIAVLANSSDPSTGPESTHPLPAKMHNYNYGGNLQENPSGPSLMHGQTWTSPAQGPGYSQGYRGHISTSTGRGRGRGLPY
Sequence of Calcium/calmodulin-dependent protein kinase kinase 2 ; CAMKK2 ; Q96RR4 (Q96RR4 whole entry, one chain of several): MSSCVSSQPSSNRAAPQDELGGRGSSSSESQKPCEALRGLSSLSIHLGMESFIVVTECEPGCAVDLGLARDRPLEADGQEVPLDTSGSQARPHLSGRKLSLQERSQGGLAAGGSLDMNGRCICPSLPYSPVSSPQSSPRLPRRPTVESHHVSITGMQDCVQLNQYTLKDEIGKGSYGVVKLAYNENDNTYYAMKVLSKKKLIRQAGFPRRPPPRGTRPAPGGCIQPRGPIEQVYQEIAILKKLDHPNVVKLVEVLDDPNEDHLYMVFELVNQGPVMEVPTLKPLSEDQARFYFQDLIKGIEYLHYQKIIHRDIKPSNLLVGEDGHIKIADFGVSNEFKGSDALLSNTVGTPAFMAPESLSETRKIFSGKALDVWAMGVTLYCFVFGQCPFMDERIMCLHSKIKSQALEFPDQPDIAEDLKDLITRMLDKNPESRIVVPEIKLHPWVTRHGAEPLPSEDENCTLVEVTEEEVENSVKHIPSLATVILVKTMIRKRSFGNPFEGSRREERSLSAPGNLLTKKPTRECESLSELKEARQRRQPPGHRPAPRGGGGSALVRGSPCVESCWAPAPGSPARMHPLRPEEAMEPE

Regarding `COc1cc(F)ccc1-c1ncnc(Nc2cccc(C[S@](C)(=N)=O)c2)n1` [BAY-1143572], the remaining activity at 10 µM in test [1] (setting [7]) came to 89.2%; in test [2] (setting [7]) it was 99.5%; in test [3] (setting [7]), 50.1%; in test [4] (setting [7]) it was 117%; in test [5] (setting [7]) it was 27.1%; in test [6] (setting [7]) it was 24%.
`COc1cc(F)ccc1-c1cc(Nc2cc(CS(C)(=N)=O)ccn2)ncc1F` (stereo not drawn) [BAY-1251152]: the remaining activity at 10 µM in test [1] (setting [8]) came to 58.8%; in test [2] (setting [8]) it was 89.7%; in test [3] (setting [8]), 29.2%; in test [4] (setting [8]), 110%; in test [5] (setting [8]), 78.6%; in test [6] (setting [8]) it was 86.2%.
